Assay results published in US20200289474A1, “METHODS OF TREATING PAIN WITH A THIAZOLINE ANTI-HYPERALGESIC” (priority 2019, published 2020).

Experiments:
Format in all cases: in vivo, rat
[1] = tested on: STZ-induced mechanical allodynia; test: STZ-induced diabetic rats, subsequent study
Experimental: (§1) Experiments were conducted to determine the effect of Compound 1 in streptozotocin (STZ)-induced diabetic rats. In the first experiment, after obtaining mechanical threshold baselines, STZ (50 mg/kg IV) was administered (Day −7). Two days later, blood glucose levels were measured and animals that were hyperglycemic (>250 mg/dL) continued in the study. On Day 0 the baseline for mechanical thresholds prior to dosing with test articles was established for the rats. Compound 1 (10, 30, and 100 mg/kg PO), gabapentin (100 mg/kg PO) or vehicle was then administered daily for 5 days. On Day 0 mechanical thresholds were obtained at 1, 3, and 6 h post-dose. On Day 1 mechanical thresholds were measured immediately prior to dosing and then 3 h post-dose. The same regimen was followed on Day 3.
In a subsequent study, the same STZ paradigm was followed. However, in addition to the 100 mg/kg Compound 1 group, two additional cohorts received the Compound 1 100 mg/kg dose split into two or three doses per day with 50 mg/kg BID and 33 mg/kg TID. In addition to the gabapentin (100 mg/kg PO) group, a separate cohort received duloxetine (30 mg/kg PO). Additionally, in this study mechanical threshold testing was implemented every day immediately prior to dosing and 2 h post-dose for 7 days.

[2] = tested on: incision-induced hyperalgesia; test: Brennan protocol, treatment paradigm (established hyperalgesia); conditions: morphine 3 mg/kg SC
Source text: Two incisional pain models were used to assess Compound 1 effects on hyperalgesia. The first model is referred to as the Brennan model in which, under anesthesia, a 1 cm longitudinal incision to the skin and underlying fascia of a rat hindpaw is made. The second is a variation but is a more invasive procedure in which the skin and muscle are spread apart using forceps which creates a longer-lasting hypersensitivity.
Using the Brennan protocol and a treatment paradigm in rat, Compound 1 (10 and 30 mg/kg PO), morphine (3 mg/kg SC) or vehicle were administered daily at 24 h post-incision, and again at 48 and 72 h post-incision. Mechanical thresholds were obtained at 1 h and 2 h post-dose in all cohorts on all days.

[3] = tested on: STZ-induced mechanical allodynia; test: streptozotocin (STZ)-induced diabetic rats, first experiment; conditions: gabapentin 100 mg/kg PO daily; 1 h post-dose Day 0 and all time points thereafter
Experimental: FIG. 14 illustrates non-limiting reversal of mechanical hypersensitivity by Compound 1 in a diabetic neuropathy model, in accordance with various embodiments. Streptozotocin (STZ) destroys insulin-producing cells and generates a diabetic phenotype in […]. Animals were dosed with STZ on day −7. By day 0 animals are hyperglycemic and hyperalgesic (day 0 BL).
as §1

CNCC[C@H](Oc1cccc2ccccc12)c1cccs1 [duloxetine, reference compound]
reversal of allodynia ([1]; duloxetine 30 mg/kg PO): required successive doses for appreciable activity

CN1CC[C@]23c4c5ccc(O)c4O[C@H]2[C@@H](O)C=C[C@H]3[C@H]1C5 [morphine]
mechanical threshold ([2]; Day 1, 1 h post-dose (baseline 35 g)): 45 g | analgesic effect ([2]; Day 1, 2 h post-dose): this effect waned | hyperalgesia ([2]; Day 2, 1 h): not hyperalgesic | hyperalgesia ([2]; Day 2, 2 h): mild hyperalgesia | mechanical threshold ([2]; Day 2 prior to dosing): < 15 g

NCC1(CC(=O)O)CCCCC1 [gabapentin, reference compound]
reversal of allodynia (mechanical thresholds) [3]: significant reversal of allodynia | reversal of allodynia ([1]; gabapentin 100 mg/kg PO, throughout the study): robustly reversed the allodynia
